In ChEMBL document CHEMBL3885881, “DrugMatrix”:

Species: Rattus norvegicus
Test: DrugMatrix - Regimen: Daily Repeat
Format: toxicity, organism-based, Sprague-Dawley
Set-up: regimen Daily Repeat, gender Male, age 6-8 weeks
Conditions: in vivo, po, route oral GAVAGE, vehicle .5 % CMC; for ABSOLUTE BASOPHIL / ABSOLUTE EOSINOPHIL / ABSOLUTE LYMPHOCYTE / ABSOLUTE MONOCYTE / ABSOLUTE SEGMENTED NEUTROPHIL / BASOPHIL / EOSINOPHIL / ERYTHROCYTE COUNT / HEMATOCRIT / HEMOGLOBIN / LEUKOCYTE COUNT / LYMPHOCYTE / MEAN CORPUSCULAR HEMOGLOBIN / MEAN CORPUSCULAR HEMOGLOBIN CONCENTRATION / MEAN CORPUSCULAR VOLUME / MONOCYTE / NEUTROPHIL / NUCLEATED RED BLOOD CELLS / PLATELET COUNT: tissue Blood; for ALANINE AMINOTRANSFERASE / ALBUMIN / ALKALINE PHOSPHATASE / ASPARTATE AMINOTRANSFERASE / BLOOD UREA NITROGEN / CARBON DIOXIDE / CHLORIDE / CHOLESTEROL / CREATINE PHOSPHOKINASE / CREATININE / GLUCOSE / LACTATE DEHYDROGENASE / LIPASE / PHOSPHORUS / POTASSIUM / SODIUM / TOTAL BILIRUBIN / TOTAL PROTEIN / URIC ACID: tissue Plasma
[1] = 10 mg/kg, 120 h, dose level Low, time 5 day
[2] = 2500 mg/kg, 72 h, dose level High, time 3 day
[3] = 2500 mg/kg, 120 h, dose level High, time 5 day

**Q.** What does the source list for `O=C1CN=C(c2ccccc2Cl)c2cc([N+](=O)[O-])ccc2N1` [CLONAZEPAM]?
**A.** ABSOLUTE BASOPHIL [1]: 0 CELLS/uL; ABSOLUTE EOSINOPHIL [1]: 31 CELLS/uL; ABSOLUTE LYMPHOCYTE [1]: 8153 CELLS/uL; ABSOLUTE MONOCYTE [1]: 62 CELLS/uL; ABSOLUTE SEGMENTED NEUTROPHIL [1]: 620.67 CELLS/uL; BASOPHIL [1]: 0%; EOSINOPHIL [1]: 0.33%; ERYTHROCYTE COUNT [1]: 5.74 x10E6/uL; HEMATOCRIT [1]: 35.3%; HEMOGLOBIN [1]: 13.87 G/DL; LEUKOCYTE COUNT [1]: 8.87 x10E3/uL; LYMPHOCYTE [1]: 91.67%; MEAN CORPUSCULAR HEMOGLOBIN [1]: 24.13 pg; MEAN CORPUSCULAR HEMOGLOBIN CONCENTRATION [1]: 39.3 G/DL; MEAN CORPUSCULAR VOLUME [1]: 61.43 fL; MONOCYTE [1]: 0.67%; NEUTROPHIL [1]: 7.33%; NUCLEATED RED BLOOD CELLS [1]: 0 /100WBC; PLATELET COUNT [1]: 1168 x10E3/uL; ALANINE AMINOTRANSFERASE [1]: 54 u/L; ALBUMIN [1]: 4.33 G/DL; ALKALINE PHOSPHATASE [1]: 274.67 u/L; ASPARTATE AMINOTRANSFERASE [1]: 97 u/L; BLOOD UREA NITROGEN [1]: 18.67 mg/dL; CARBON DIOXIDE [1]: 25.67 mmol/L; CHLORIDE [1]: 98.67 MEQ/L; CHOLESTEROL [1]: 75.33 mg/dL; CREATINE PHOSPHOKINASE [1]: 826.67 u/L; CREATININE [1]: 0.19 mg/dL; GLUCOSE [1]: 177.67 mg/dL; LACTATE DEHYDROGENASE [1]: 201 u/L; LIPASE [1]: 10 u/L; PHOSPHORUS [1]: 11.6 mg/dL; POTASSIUM [1]: 5.92 MEQ/L; SODIUM [1]: 138.97 MEQ/L; TOTAL BILIRUBIN [1]: 0.13 mg/dL; TOTAL PROTEIN [1]: 6.07 G/DL; URIC ACID [1]: 1.63 mg/dL; ABSOLUTE BASOPHIL [2]: 0 CELLS/uL; ABSOLUTE EOSINOPHIL [2]: 0 CELLS/uL; ABSOLUTE LYMPHOCYTE [2]: 8925.67 CELLS/uL; ABSOLUTE MONOCYTE [2]: 256 CELLS/uL; ABSOLUTE SEGMENTED NEUTROPHIL [2]: 1951.67 CELLS/uL; BASOPHIL [2]: 0%; EOSINOPHIL [2]: 0%; ERYTHROCYTE COUNT [2]: 5.85 x10E6/uL; HEMATOCRIT [2]: 36.6%; HEMOGLOBIN [2]: 14.27 G/DL; LEUKOCYTE COUNT [2]: 11.13 x10E3/uL; LYMPHOCYTE [2]: 79%; MEAN CORPUSCULAR HEMOGLOBIN [2]: 24.47 pg; MEAN CORPUSCULAR HEMOGLOBIN CONCENTRATION [2]: 39.03 G/DL; MEAN CORPUSCULAR VOLUME [2]: 62.67 fL; MONOCYTE [2]: 2.33%; NEUTROPHIL [2]: 18.67%; NUCLEATED RED BLOOD CELLS [2]: 0.33 /100WBC; PLATELET COUNT [2]: 1190 x10E3/uL; ALANINE AMINOTRANSFERASE [2]: 88.33 u/L; ALBUMIN [2]: 3.97 G/DL; ALKALINE PHOSPHATASE [2]: 322 u/L; ASPARTATE AMINOTRANSFERASE [2]: 132 u/L; BLOOD UREA NITROGEN [2]: 19.33 mg/dL; CARBON DIOXIDE [2]: 31.33 mmol/L; CHLORIDE [2]: 100.33 MEQ/L; CHOLESTEROL [2]: 88.67 mg/dL; CREATINE PHOSPHOKINASE [2]: 910.33 u/L; CREATININE [2]: 0.49 mg/dL; GLUCOSE [2]: 134.33 mg/dL; LACTATE DEHYDROGENASE [2]: 213.67 u/L; LIPASE [2]: 11.33 u/L; PHOSPHORUS [2]: 13.77 mg/dL; POTASSIUM [2]: 6.47 MEQ/L; SODIUM [2]: 143.17 MEQ/L; TOTAL BILIRUBIN [2]: 0.2 mg/dL; TOTAL PROTEIN [2]: 5.7 G/DL; URIC ACID [2]: 0.57 mg/dL; ABSOLUTE BASOPHIL [3]: 0 CELLS/uL; ABSOLUTE EOSINOPHIL [3]: 0 CELLS/uL; ABSOLUTE LYMPHOCYTE [3]: 10757.67 CELLS/uL; ABSOLUTE MONOCYTE [3]: 124 CELLS/uL; ABSOLUTE SEGMENTED NEUTROPHIL [3]: 1618.33 CELLS/uL; BASOPHIL [3]: 0%; EOSINOPHIL [3]: 0%; ERYTHROCYTE COUNT [3]: 5.66 x10E6/uL; HEMATOCRIT [3]: 34.97%; HEMOGLOBIN [3]: 14.27 G/DL; LEUKOCYTE COUNT [3]: 12.5 x10E3/uL; LYMPHOCYTE [3]: 85.67%; MEAN CORPUSCULAR HEMOGLOBIN [3]: 25.23 pg; MEAN CORPUSCULAR HEMOGLOBIN CONCENTRATION [3]: 40.83 G/DL; MEAN CORPUSCULAR VOLUME [3]: 61.8 fL; MONOCYTE [3]: 1%; NEUTROPHIL [3]: 13.33%; NUCLEATED RED BLOOD CELLS [3]: 0 /100WBC; PLATELET COUNT [3]: 964.33 x10E3/uL; ALANINE AMINOTRANSFERASE [3]: 84 u/L; ALBUMIN [3]: 3.93 G/DL; ALKALINE PHOSPHATASE [3]: 331.67 u/L; ASPARTATE AMINOTRANSFERASE [3]: 114 u/L; BLOOD UREA NITROGEN [3]: 19 mg/dL; CARBON DIOXIDE [3]: 27 mmol/L; CHLORIDE [3]: 102.33 MEQ/L; CHOLESTEROL [3]: 93 mg/dL; CREATINE PHOSPHOKINASE [3]: 261 u/L; CREATININE [3]: 0.2 mg/dL; GLUCOSE [3]: 136.67 mg/dL; LACTATE DEHYDROGENASE [3]: 217.67 u/L; LIPASE [3]: 10.33 u/L; PHOSPHORUS [3]: 9.8 mg/dL; POTASSIUM [3]: 5.43 MEQ/L; SODIUM [3]: 142.37 MEQ/L; TOTAL BILIRUBIN [3]: 0.2 mg/dL; TOTAL PROTEIN [3]: 5.73 G/DL; URIC ACID [3]: 1.13 mg/dL
